According to patent US7838275B2, “Anti-HIV and anti-tumor peptides and fragments of lysozyme” (priority 2000, dated 2010):
Read-outs that look alike come from different tables or passages of the source. Peptide text beside a SMILES is read from it.

What was measured:
HIV-1 = test system: HIV-1
Protocol: Human lysozyme (2 mg) was treated with clostripain (10 units, Sigma) in 400 μl of Tris buffer, pH7.6 at 37° C. for 24 h. The digest was resolved by reversed phase chromatography on a ProRPC column (Hr5/10). […] The fractions were assayed for anti-HIV activity by p24 production in HIV-1 infected ACH2 T lymphocytes as described in Lee-Huang et al. (1999).

[1] = test system: HHV8 infected cells of AIDS patients with Kaposi's sarcoma

Compound	EC50 (HIV-1; 24 h)	Anti-HIV activity (EC50) (HIV-1)	further results
CC(C)[C@H](NC(=O)[C@H](Cc1c[nH]c2ccccc12)NC(=O)[C@H](C)NC(=O)[C@@H](N)CC(N)=O)C(=O)N[C@@H](C)C(=O)N[C@@H](Cc1c[nH]c2ccccc12)C(=O)N[C@@H](CCCNC(=N)N)C(=O)N[C@@H](CC(N)=O)C(=O)N[C@@H](CCCNC(=N)N)C(=O)O [HL9 (R107→N), NAWVAWRNR] (H-NAWVAWRNR-OH)	> 100000 nM		
CC(C)[C@H](NC(=O)[C@H](Cc1c[nH]c2ccccc12)NC(=O)[C@H](C)NC(=O)[C@@H](N)CCCNC(=N)N)C(=O)N[C@@H](C)C(=O)N[C@@H](Cc1c[nH]c2ccccc12)C(=O)N[C@@H](CCCCN)C(=O)N[C@@H](CC(N)=O)C(=O)N[C@@H](CCCNC(=N)N)C(=O)O [HL9 (R113→K), RAWVAWKNR] (H-RAWVAWKNR-OH)	> 100000 nM		
CC(C)[C@H](NC(=O)[C@H](Cc1c[nH]c2ccccc12)NC(=O)[C@H](C)NC(=O)[C@@H](N)CCCNC(=N)N)C(=O)N[C@@H](C)C(=O)N[C@@H](Cc1c[nH]c2ccccc12)C(=O)N[C@@H](CCCNC(=N)N)C(=O)N[C@@H](CC(N)=O)C(=O)N[C@@H](CCCCN)C(=O)O [HL9 (R115→K), RAWVAWRNK] (H-RAWVAWRNK-OH)	> 100000 nM		
CC(C)[C@H](NC(=O)[C@H](Cc1c[nH]c2ccccc12)NC(=O)[C@H](C)NC(=O)[C@@H](N)CCCNC(=N)N)C(=O)N[C@@H](C)C(=O)N[C@@H](Cc1c[nH]c2ccccc12)C(=O)N[C@@H](CCCNC(=N)N)C(=O)N[C@@H](CC(N)=O)C(=O)N[C@@H](CCCNC(=N)N)C(=O)O [HL9, RAWVAWRNR] (H-RAWVAWRNR-OH)			EC50 [1]: 48 nM
CC[C@H](C)[C@H](NC(=O)CNC(=O)[C@H](CCC(N)=O)NC(=O)[C@@H]1CCCN1C(=O)[C@H](CC(=O)O)NC(=O)[C@H](CCCNC(=N)N)NC(=O)[C@@H](NC(=O)[C@@H](NC(=O)[C@@H](N)CCCNC(=N)N)C(C)C)C(C)C)C(=O)N[C@@H](CCCNC(=N)N)C(=O)N[C@@H](C)C(=O)N[C@@H](Cc1c[nH]c2ccccc12)C(=O)N[C@H](C(=O)N[C@@H](C)C(=O)N[C@@H](Cc1c[nH]c2ccccc12)C(=O)N[C@@H](CCCNC(=N)N)C(=O)N[C@@H](CC(N)=O)C(=O)N[C@@H](CCCNC(=N)N)C(=O)O)C(C)C [HL18, RVVRDPQGIRAWVAWRNR] (H-RVVRDPQGIRAWVAWRNR-OH; N-terminus and C-terminus assumed)	58 nM		EC50 [1]: 56 nM
Lysozyme: Human lysozyme, whole molecule			EC50 (HIV-1; read-out: Anti-HIV EC50): 50 nM; EC50 (HIV-1; read-out: Anti-HIV activity (EC50)): 50 nM; EC50 (HIV-1; read-out: anti-HIV EC50 (50% inhibition concentration)): 55 nM; EC50 ([1]; read-out: Anti-KS EC50, Table 4): 54 nM
RAWVAYRNR [HL9 (W112→Y)]		No Anti-HIV	
RAYVAWRNR [HL9 (W109→Y)]		No Anti-HIV	
RVVRDPQGI [HL18-N9]		No Anti-HIV	anti-HIV activity (HIV-1): no anti-HIV activity
RVVRDPQGIRAWVAYRNR [HL18 (W112-Y)]		No Anti-HIV	
RVVRDPQGIRAYVAWRNR [HL18 (W109-Y)]		No Anti-HIV	
